In patent US11780826B2 (Amgen Inc., priority 2017, dated 2023):

Test system: Bovine cardiac myofibrils
Experiment: In vitro model of dose-dependent myofibril ATPase modulation (AC1.4, pyruvate kinase/lactate dehydrogenase-coupled ATPase assay at pCa25)
Assay type: biochemical
Conditions: concentration at which ATPase activity was 1.4-fold higher than the bottom of the dose curve, mean of a minimum of two independent tests
How it was run: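 Bovine cardiac myofibrils, detergent-treated; 0.25-1.0 mg/ml. Buffer: K-PIPES 12 mM, MgCl2 2 mM, DTT 1 mM, BSA 0.1 mg/ml, pH 6.80, 22° C; Ca2+ set by EGTA/CaCl2. ATP 1 mM, NADH/PEP-coupled, A340. 4-parameter fit; n≥2.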

| Compound | AC1.4 |
| --- | --- |
| N#CC1CN(S(=O)(=O)N2CCC[C@H](C(=O)N3CCC[C@@H]3C(=O)NCc3ccc(C(F)(F)F)cn3)C2)C1 [Example 373, 1-(((3S)-1-((3-cyano-1-azetidinyl)sulfonyl)-3-piperidinyl)carbonyl)-N-((5-(trifluoromethyl)-2-pyridinyl)methyl)-D-prolinamide] | 1.2258 µM |
| CC(C)(C(N)=O)c1cccc(C(=O)N2[C@@H](C(=O)N[C@@H](c3ccc(C(F)(F)F)cc3F)C3COC3)C[C@H]3C[C@H]32)c1 [Example 497, (1R,3R,5R)-2-(3-(1-amino-2-methyl-1-oxopropan-2-yl)benzoyl)-N—((R)-(2-fluoro-4-(trifluoromethyl)phenyl)(oxetan-3-yl)methyl)-2-azabicyclo[3.1.0]hexane-3-carboxamide] | 2.3075 µM |
| CS(=O)(=O)c1ccnc(C(=O)N2[C@@H](C(=O)N[C@@H](c3cc(F)c(Cl)cc3F)C3CC3)C[C@H]3C[C@H]32)c1 [Example 202, (1R,3R,5R)-N-((R)-(4-chloro-2,5-difluorophenyl)(cyclopropyl)methyl)-2-((4-(methylsulfonyl)-2-pyridinyl)carbonyl)-2-azabicyclo[3.1.0]hexane-3-carboxamide] | 0.4116 µM |
| O=C(NCc1ccc(C(F)(F)F)cc1)[C@H]1CCCN1C(=O)[C@H]1CCCN(S(=O)(=O)N2CC(NC(=O)C(F)(F)F)C2)C1 [Example 489, 1-(((3S)-1-((3-((trifluoroacetyl)amino)-1-azetidinyl)sulfonyl)-3-piperidinyl)carbonyl)-N-(4-(trifluoromethyl)benzyl)-D-prolinamide] | 2.2325 µM |
| C[C@@H](NC(=O)[C@H]1CCCN1C(=O)[C@H]1CCCN(S(=O)(=O)N2CC(C#N)C2)C1)c1ccc(C(F)F)cc1F [Example 104, 1-(((3S)-1-((3-cyano-1-azetidinyl)sulfonyl)-3-piperidinyl)carbonyl)-N-((1R)-1-(4-(difluoromethyl)-2-fluorophenyl)ethyl)-D-prolinamide] | 0.1611 µM |
| C[C@@H](NC(=O)[C@H]1CCCN1C(=O)c1cccc(S(=O)(=O)N(C)C)c1)c1ccc(C(F)(F)F)cc1 [Example 436, 1-(3-(dimethylsulfamoyl)benzoyl)-N-((1R)-1-(4-(trifluoromethyl)phenyl)ethyl)-D-prolinamide] | 1.7 µM |
| O=C(NCc1ccc(C(F)(F)F)cc1)[C@H]1CCCN1C(=O)[C@H]1CCCN(S(=O)(=O)NC2CS(=O)(=O)C2)C1 [Example 645, 1-(((3S)-1-((l,l-dioxido-3-thietanyl)sulfamoyl)-3-piperidinyl)carbonyl)-N-(4-(trifluoromethyl)benzyl)-D-prolinamide] | 4.351 µM |
| N#CC1CN(S(=O)(=O)c2cccc(C(=O)N3CCC[C@@H]3C(=O)NCc3cccc(Cl)c3)c2)C1 [Example 190, N-(3-chlorobenzyl)-1-((3-((3-cyano-1-azetidinyl)sulfonyl)phenyl)carbonyl)-D-prolinamide] | 0.3569 µM |
| N#CC1CN(S(=O)(=O)N2C[C@H]3C[C@@H]2[C@H](C(=O)N2CCC[C@@H]2C(=O)NCc2ccc(C(F)(F)F)cc2)C3)C1 [Example 172, 1-(((1R,4R,6R)-2-((3-cyano-1-azetidinyl)sulfonyl)-2-azabicyclo[2.2.1]hept-6-yl)carbonyl)-N-(4-(trifluoromethyl)benzyl)-D-prolinamide] | 0.2959 µM |
| O=C(N[C@@H](c1ccc(C(F)(F)F)cc1F)C1COC1)[C@H]1C[C@H]2C[C@H]2N1C(=O)c1cccc(C(F)(F)F)n1 [Example 789, (1R,3R,5R)-N-((R)-(2-fluoro-4-(trifluoromethyl)phenyl)(3-oxetanyl)methyl)-2-((6-(trifluoromethyl)-2-pyridinyl)carbonyl)-2-azabicyclo[3.1.0]hexane-3-carboxamide] | 8.9635 µM |
| O=C(NCc1ccc(C(F)(F)F)cc1)[C@H]1CCCN1C(=O)[C@H]1CCCN(S(=O)(=O)N2CC(OCC(F)F)C2)C1 [Example 311, 1-(((3S)-1-((3-(2,2-difluoroethoxy)-1-azetidinyl)sulfonyl)-3-piperidinyl)carbonyl)-N-(4-(trifluoromethyl)benzyl)-D-prolinamide] | 0.8393 µM |
| CN(C)C(=O)C1CN(S(=O)(=O)N2CCC[C@H](C(=O)N3CCC[C@@H]3C(=O)NCc3ccc(C(F)(F)F)cc3)C2)C1 [Example 712, (R)-1-((S)-1-((3-(dimethylcarbamoyl)azetidin-1-yl)sulfonyl)piperidine-3-carbonyl)-N-(4-(trifluoromethyl)benzyl)pyrrolidine-2-carboxamide] | 5.9215 µM |
| C[C@H](C(=O)N[C@H](C)c1ccc(Cl)cc1F)N(C)C(=O)[C@@H]1CN(S(=O)(=O)N2CC(C#N)C2)CCO1 [Example 419, (2S)-N-((2R)-1-(((1R)-1-(4-chloro-2-fluorophenyl)ethyl)amino)-l-oxo-2-propanyl)-4-((3-cyano-1-azetidinyl)sulfonyl)-N-methyl-2-morpholinecarboxamide] | 1.542 µM |
| CS(=O)(=O)c1cc(C(=O)N2[C@@H](C(=O)N[C@@H](c3cc(F)c(C(F)(F)F)cc3F)C3CC3)C[C@@H]3C[C@@H]32)ccn1 [Example 731, (1S,3R,5S)-N-((R)-cyclopropyl(2,5-difluoro-4-(trifluoromethyl)phenyl)methyl)-2-((2-(methylsulfonyl)-4-pyridinyl)carbonyl)-2-azabicyclo[3.1.0]hexane-3-carboxamide] | 6.763 µM |
| O=C(NCc1ccc(C(F)(F)F)cc1)[C@H]1CCCN1C(=O)[C@H]1CCCN(S(=O)(=O)N2CC(c3ccc(F)cc3)C2)C1 [Example 477, 1-(((3S)-1-((3-(4-fluorophenyl)-1-azetidinyl)sulfonyl)-3-piperidinyl)carbonyl)-N-(4-(trifluoromethyl)benzyl)-D-prolinamide] | 2.0765 µM |
| CS(=O)(=O)c1ccc(F)c(C(=O)N2CCC[C@@H]2C(=O)N[C@@H](c2ccc(C(F)(F)F)cc2F)C2CC2)c1 [Example 464, N-((R)-cyclopropyl(2-fluoro-4-(trifluoromethyl)phenyl)methyl)-1-(2-fluoro-5-(methylsulfonyl)benzoyl)-D-prolinamide] | 1.612 µM |
| O=C(N[C@@H](c1cc(F)c(C(F)(F)F)cc1F)C1CC1)[C@H]1C[C@H]2C[C@H]2N1C(=O)c1cncc(C(F)(F)F)c1 [Example 361, (1R,3R,5R)-N-((R)-cyclopropyl(2,5-difluoro-4-(trifluoromethyl)phenyl)methyl)-2-((5-(trifluoromethyl)-3-pyridinyl)carbonyl)-2-azabicyclo[3.1.0]hexane-3-carboxamide] | 1.1125 µM |
| CN(C)S(=O)(=O)c1cccc(C(=O)N2CCC[C@@H]2C(=O)N[C@@H](c2ccc(Cl)c(F)c2)C2CC2)c1 [Example 114, N-((R)-(4-chloro-3-fluorophenyl)(cyclopropyl)methyl)-1-(3-(dimethylsulfamoyl)benzoyl)-D-prolinamide] | 0.1771 µM |
| O=C(NCc1ccc(C(F)(F)F)cc1)[C@H]1CCCN1C(=O)[C@H]1CCCN(S(=O)(=O)C2CCC2)C1 [Example 780, (R)-1-((S)-1-(cyclobutylsulfonyl)piperidine-3-carbonyl)-N-(4-(trifluoromethyl)benzyl)pyrrolidine-2-carboxamide] | 8.4235 µM |
